This note sets out measurements from patent US20030104063A1, “Pharmaceutical compositions of dispersions of amorphous drugs mixed with polymers” (priority 2001, published 2003).

Type in all cases: physicochemical
Data set [1] in a line: In vitro dissolution test of Drug 2 compositions in PBS with sodium taurocholic acid/POPC (microcentrifuge, HPLC). The settings on record: for Drug 2 Concentration: PBS with sodium taurocholic acid/POPC, 37° C. How it is done: Example 5 was prepared by combining the drug/matrix dispersion of Drug 2 and polyethylene glycol with the concentration-enhancing polymer HPMCAS. Example 5 was evaluated in an in vitro dissolution test using a microcentrifuge method. In this test, 18 mg of the dispersion was added to each of two microcentrifuge tubes. The tubes were placed in a 37° C. temperature-controlled chamber, and 1.8 mL PBS containing 7.3 mM sodium taurocholic acid and 1.4 mM 1-palmitoyl-2-oleyl-sn-glycero-3-phosphocholine, with 7.2 mg HPMCAS-MF, was added. The tests were sampled as described in Example 1, and analyzed using HPLC. Samples were collected at 4, 10, 20, 40, 90, and 1200 minutes.

Data set [2] in a line: In vitro dissolution test of Drug 3 compositions in PBS (microcentrifuge, HPLC). The settings on record: for Drug 3 Concentration: PBS, 37° C. How it is done:
Example 6 was prepared by combining the dispersion with the concentration-enhancing polymer HPMCAS. 7.2 mg of the dispersion of Example 6 was added to microcentrifuge tubes. Tests were performed in duplicate. The tubes were placed in a 37° C. temperature-controlled chamber, and 1.8 mL PBS with 5.4 mg HPMCAS-MF was added. The tests were sampled as described in Example 1, and analyzed using HPLC.

Data set [3] is described as follows: In vitro dissolution test of Drug 4 compositions in PBS (microcentrifuge, HPLC). As to conditions: for Drug 4 Concentration: PBS, 37° C. Further details: AUC: concentration or dose not given beside the values. How it is done:
Tests were performed in duplicate. The tubes were placed in a 37° C. temperature-controlled chamber, and 1.8 mL PBS with 7.2 mg PVA was added. The tests were sampled as described in Example 1, and analyzed using HPLC. HPLC analysis was performed using a Zorbax SB C18 column, with a mobile phase of 35 vol. % water and 65 vol. % methanol. UV absorbance of Drug 4 was measured at 297 nm.

Data set [4] is described as follows: In vitro dissolution test of Drug 5 compositions in MFDS pH 6.5 (microcentrifuge, HPLC). The settings on record: for Drug 5 Concentration: MFDS pH 6.5, 37° C. How it is done:
Example 10 was prepared by combining the above amorphous dispersion with the concentration-enhancing polymer hydroxypropyl methylcellulose (HPMC E3 Prem LV, Dow Chemical Co.). 1.4 mg of the amorphous dispersion was added to microcentrifuge tubes. The tubes were placed in a 37° C. temperature-controlled chamber, and 1.8 mL PBS containing 0.5 wt % sodium taurocholic acid/1-palmitoyl-2-oleyl-sn-glycero-3-phosphocholine (MFDS, pH 6.5) and 0.4 mg HPMC was added. The tests were sampled as described in Example 1, and analyzed using HPLC.
For Control C12, in vitro dissolution tests were performed using the precedures described above except that 1.4 mg of the amorphous dispersion was tested without concentration-enhancing polymer (HPMC) in the test solution.

Where only a bound is given, the exact number is not on record here.

For the compound `CCC(CC)Oc1c(C)cnc(Oc2c(C)cc(C)cc2C)c1C` [Control C7, 3,5-dimethyl-4-(3′-pentoxy)-2-(2′, 4′, 6′-trimethylphenoxy) pyridine], the “Drug 2 Concentration” value in data set [1] (0 min) amounted to 0 µg/mL; in data set [1] (4 min) it was 16 µg/mL; in data set [1] (10 min), 33 µg/mL; in data set [1] (20 min), 32 µg/mL; in data set [1] (40 min), 30 µg/mL; in data set [1] (90 min), 39 µg/mL. For the same compound, the “Drug 2 Concentration” value in data set [1] (1200 min) is 37 µg/mL. Further, the AUC (usually the area under the concentration-time curve, a measure of exposure) was 0 µg·min/mL in data set [1] (Drug 2, 0 min); 0 µg·min/mL in data set [1] (Drug 2, 4 min); 200 µg·min/mL in data set [1] (Drug 2, 10 min); 500 µg·min/mL in data set [1] (Drug 2, 20 min); 1,100 min*μg/mL in data set [1] (Drug 2, 40 min); 2,800 min*μg/mL in data set [1] (Drug 2, 90 min). For the same compound, in data set [1] (Drug 2, 1200 min), the AUC is given as 45,000 min*μg/mL. This compound yielded an AUC90 in data set [1] (Drug 2, area under the concentration versus time curve after 90 minutes) of 2800 µg·min/mL. In data set [1] (Drug 2 concentration at 1200 minutes), the C1200 was found to be 37 µg/mL. Moreover, the “Cmax,90” value in data set [1] (maximum concentration of Drug 2 in solution during the first 90 minutes) was found to be 39000 ng/mL.

`CCOC(=O)N1c2ccc(C(F)(F)F)cc2[C@@H](N(Cc2cc(C(F)(F)F)cc(C(F)(F)F)c2)C(=O)OC)C[C@H]1CC` [Control C9, [2R,4S] 4-[(3,5-bis-trifluoromethyl-benzyl)-methoxycarbonyl-amino]-2-ethyl-6-trifluoromethyl-3,4-dihydro-2H-quinoline-1-carboxylic acid ethyl ester]: the “Drug 3 Concentration” value in data set [2] (0 min), in data set [2] (4 min), in data set [2] (10 min), in data set [2] (20 min), in data set [2] (40 min) and in data set [2] (90 min) was less than 1 µg/mL each time. In addition, the “Drug 3 Concentration” value in data set [2] (1200 min) was less than 1 µg/mL. In addition, the AUC in data set [2] (Drug 3, 0 min) was less than 1 µg·min/mL; in data set [2] (Drug 3, 4 min), less than 1 µg·min/mL; in data set [2] (Drug 3, 10 min) it was less than 1 µg·min/mL; in data set [2] (Drug 3, 20 min), less than 1 µg·min/mL; in data set [2] (Drug 3, 40 min), less than 1 µg·min/mL; in data set [2] (Drug 3, 90 min), less than 1 µg·min/mL. In data set [2] (Drug 3, 1200 min), this compound had an area under the curve (AUC) of less than 1 µg·min/mL. The same compound showed an AUC90 in data set [2] (Drug 3, after 90 minutes) of less than 1 µg·min/mL. In addition, in data set [2] (Drug 3 concentration at 1200 minutes), the C1200 was less than 1 µg/mL. Also, in data set [2] (maximum concentration of Drug 3 during the first 90 minutes), the “Cmax,90” value is less than 1000 ng/mL.

Consider `O=C(N[C@@H](Cc1ccccc1)[C@@H](O)C(=O)N1C[C@@H](O)[C@@H](O)C1)c1cc2cc(Cl)ccc2[nH]1` [Control C11, 5-chloro-1H-indole-2-carboxylic acid [(1S)-benzyl-3-((3R, 4S)-dihydroxypyrrolidin-1-yl-)-(2R)-hydroxy-3-oxypropyl] amide], for which the “Drug 4 Concentration” value in data set [3] (0 min) was determined as 0 µg/mL; in data set [3] (4 min) it was 360 µg/mL; in data set [3] (10 min) it was 382 µg/mL; in data set [3] (20 min), 372 µg/mL; in data set [3] (40 min), 345 µg/mL; in data set [3] (90 min), 262 µg/mL. Besides, in data set [3] (1200 min), the “Drug 4 Concentration” value came out at 154 µg/mL. In addition, the AUC in data set [3] (Drug 4, 0 min) was 0 µg·min/mL; in data set [3] (Drug 4, 4 min) it was 700 µg·min/mL; in data set [3] (Drug 4, 10 min), 2,900 min*μg/mL; in data set [3] (Drug 4, 20 min), 6,700 min*μg/mL; in data set [3] (Drug 4, 40 min), 13,900 min*μg/mL; in data set [3] (Drug 4, 90 min), 29,100 min*μg/mL. For the same compound, in data set [3] (Drug 4, 1200 min), the exposure (AUC) is 259,800 min*μg/mL. Further, the AUC90 in data set [3] (Drug 4, after 90 minutes) was 29,100 min*μg/mL. In data set [3] (Drug 4 concentration at 1200 minutes), this compound displayed a C1200 of 154 µg/mL. The “Cmax,90” value in data set [3] (maximum concentration of Drug 4 during the first 90 minutes) came out at 382000 ng/mL.

As to `CS(=O)(=O)O.O=C1Cc2cc(CCN3CCN(c4nsc5ccccc45)CC3)c(Cl)cc2N1` [Control C13], the “Drug 5 Concentration” value in data set [4] (0 min) was 0 µg/mL; in data set [4] (4 min) it was 16 µg/mL; in data set [4] (10 min), 8 µg/mL; in data set [4] (20 min), 5 µg/mL; in data set [4] (40 min), 4 µg/mL; in data set [4] (90 min), 4 µg/mL. Also, in data set [4] (1200 min), the “Drug 5 Concentration” value is 4 µg/mL. The AUC stood at 0 µg·min/mL in data set [4] (Drug 5, 0 min); 0 µg·min/mL in data set [4] (Drug 5, 4 min); 100 µg·min/mL in data set [4] (Drug 5, 10 min); 200 µg·min/mL in data set [4] (Drug 5, 20 min); 300 µg·min/mL in data set [4] (Drug 5, 40 min); 500 µg·min/mL in data set [4] (Drug 5, 90 min). Besides, the AUC in data set [4] (Drug 5, 1200 min) is 4,900 min*μg/mL. For the same compound, the AUC90 in data set [4] (Drug 5, after 90 minutes) is 500 µg·min/mL. In addition, the C1200 in data set [4] (Drug 5 concentration at 1200 minutes) was found to be 4 µg/mL. Moreover, in data set [4] (maximum concentration of Drug 5 during the first 90 minutes), the “Cmax,90” value was 16000 ng/mL.
